Active and inactive are the calls of the source. The rule behind the calls is not given here.
Key:
HL-60 = assay: Cytotoxicity against human topoisomerase 2-sensitive HL60 cells after 72 hrs by MTT assay; format: functional, cell-based; settings: HL-60, 72 h
[1] = Cytotoxicity against human HL60/MX2 cells after 72 hrs by MTT assay; format: functional, cell-based; settings: HL60/MX2, 72 h
[2] = target: T1, DNA topoisomerase 1 (Homo sapiens) (UniProt P11387); assay: Inhibition of human topoisomerase 1-mediated relaxation of pUC18 DNA assessed as formation of nicked DNA up to 50 uM using ethidium bromide staining by agarose gel electrophoresis
T1 sequence (whole entry): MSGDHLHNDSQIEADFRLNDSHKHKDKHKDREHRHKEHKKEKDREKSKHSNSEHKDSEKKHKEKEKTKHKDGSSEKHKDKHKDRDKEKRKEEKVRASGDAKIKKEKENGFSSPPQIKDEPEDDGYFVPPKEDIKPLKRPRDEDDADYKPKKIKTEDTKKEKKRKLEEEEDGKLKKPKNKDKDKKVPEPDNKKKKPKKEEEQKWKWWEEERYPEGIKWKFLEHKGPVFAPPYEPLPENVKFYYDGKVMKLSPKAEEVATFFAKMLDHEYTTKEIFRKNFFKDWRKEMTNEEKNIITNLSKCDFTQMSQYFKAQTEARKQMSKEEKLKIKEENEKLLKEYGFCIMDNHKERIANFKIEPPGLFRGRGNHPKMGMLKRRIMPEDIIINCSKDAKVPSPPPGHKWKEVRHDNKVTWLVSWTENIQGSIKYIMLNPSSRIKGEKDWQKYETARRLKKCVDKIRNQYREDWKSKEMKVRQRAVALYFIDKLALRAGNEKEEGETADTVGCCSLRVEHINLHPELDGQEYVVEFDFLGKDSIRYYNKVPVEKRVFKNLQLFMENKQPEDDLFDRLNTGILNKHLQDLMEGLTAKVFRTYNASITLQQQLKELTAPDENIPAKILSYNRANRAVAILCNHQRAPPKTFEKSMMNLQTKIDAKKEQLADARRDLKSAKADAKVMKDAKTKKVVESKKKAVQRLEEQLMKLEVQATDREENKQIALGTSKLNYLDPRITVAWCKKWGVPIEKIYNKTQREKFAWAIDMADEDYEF

Calf thymus DNA [3] = assay: Binding affinity to calf thymus DNA assessed as change in melting temperature at 10 uM; format: nucleic-acid assay; settings: Bos taurus
Calf thymus DNA [4] = assay: Binding affinity to calf thymus DNA assessed as change in melting temperature at 20 uM; format: nucleic-acid assay; settings: Bos taurus
Nucleic Acid [5] = assay: Binding affinity to [poly(dAdT)]2 DNA assessed as change in melting temperature at 10 uM; format: nucleic-acid assay
Nucleic Acid [6] = assay: Binding affinity to [poly(dAdT)]2 DNA assessed as change in melting temperature at 20 uM; format: nucleic-acid assay
[7] = target: DNA topoisomerase 2-alpha (Homo sapiens) (UniProt P11388); assay: Inhibition of human topoisomerase 2-mediated relaxation of pUC18 DNA assessed as formation of nicked DNA at 50 uM using ethidium bromide staining by agarose gel electrophoresis
DNA topoisomerase 2-alpha (Homo sapiens), sequence (P11388 whole entry): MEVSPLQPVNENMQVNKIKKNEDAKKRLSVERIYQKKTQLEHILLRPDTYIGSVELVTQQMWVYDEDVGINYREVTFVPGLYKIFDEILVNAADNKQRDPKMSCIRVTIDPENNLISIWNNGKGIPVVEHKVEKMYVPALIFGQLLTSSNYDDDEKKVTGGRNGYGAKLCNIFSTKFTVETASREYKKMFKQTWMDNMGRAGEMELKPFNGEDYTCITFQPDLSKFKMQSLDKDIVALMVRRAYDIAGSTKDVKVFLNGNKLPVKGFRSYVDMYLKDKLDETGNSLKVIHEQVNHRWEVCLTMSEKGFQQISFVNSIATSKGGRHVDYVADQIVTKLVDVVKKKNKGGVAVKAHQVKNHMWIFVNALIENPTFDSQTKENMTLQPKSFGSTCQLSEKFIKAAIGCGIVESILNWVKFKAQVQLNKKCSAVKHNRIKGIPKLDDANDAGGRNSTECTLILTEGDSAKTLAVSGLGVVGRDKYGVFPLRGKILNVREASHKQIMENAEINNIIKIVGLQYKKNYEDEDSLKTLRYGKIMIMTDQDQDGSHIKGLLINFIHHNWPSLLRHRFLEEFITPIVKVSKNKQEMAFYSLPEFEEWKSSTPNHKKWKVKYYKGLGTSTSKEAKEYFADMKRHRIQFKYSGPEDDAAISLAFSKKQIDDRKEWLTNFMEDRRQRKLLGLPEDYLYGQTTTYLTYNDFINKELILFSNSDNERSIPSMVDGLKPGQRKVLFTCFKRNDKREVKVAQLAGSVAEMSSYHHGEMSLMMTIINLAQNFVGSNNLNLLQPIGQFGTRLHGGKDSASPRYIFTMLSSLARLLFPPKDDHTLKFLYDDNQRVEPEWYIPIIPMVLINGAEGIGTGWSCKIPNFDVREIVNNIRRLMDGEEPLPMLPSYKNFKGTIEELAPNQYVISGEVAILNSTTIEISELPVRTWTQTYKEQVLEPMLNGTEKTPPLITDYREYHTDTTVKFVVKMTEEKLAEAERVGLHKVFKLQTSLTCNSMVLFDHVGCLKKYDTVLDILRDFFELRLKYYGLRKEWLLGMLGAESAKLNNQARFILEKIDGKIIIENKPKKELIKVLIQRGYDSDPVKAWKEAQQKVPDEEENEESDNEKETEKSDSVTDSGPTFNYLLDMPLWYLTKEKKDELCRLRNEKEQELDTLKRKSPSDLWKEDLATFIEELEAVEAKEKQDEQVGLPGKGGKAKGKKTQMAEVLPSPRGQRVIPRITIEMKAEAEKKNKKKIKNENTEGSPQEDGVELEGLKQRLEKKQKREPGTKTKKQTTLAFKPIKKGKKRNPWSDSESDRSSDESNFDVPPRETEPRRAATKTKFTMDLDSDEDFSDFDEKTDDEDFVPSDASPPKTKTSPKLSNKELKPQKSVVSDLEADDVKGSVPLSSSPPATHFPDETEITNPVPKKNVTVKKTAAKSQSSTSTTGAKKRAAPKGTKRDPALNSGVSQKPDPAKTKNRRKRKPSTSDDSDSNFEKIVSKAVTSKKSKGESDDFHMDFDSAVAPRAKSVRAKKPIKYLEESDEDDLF

Row | inhibition [2] | ΔTm (Calf thymus DNA [3]) | ΔTm (Calf thymus DNA [4]) | ΔTm (Nucleic Acid [5]) | ΔTm (Nucleic Acid [6]) | inhibition [7] | SMILES | IC50 (HL-60) | IC50 [1]
1 | inactive | 3 °C | 2.3 °C | 15.9 °C | 15.4 °C | – | CCn1c2ccccc2c2c3c(=O)[nH]c(NCCN(C)C)nc3ccc21 | 17 µM | 17 µM
2 | inactive | 0.4 °C | 0 °C | 4.4 °C | 3 °C | 10% | CN(C)CCNc1nc2c([nH]c3ccccc32)c(=O)[nH]1 | > 100 µM | > 100 µM
3 | – | 0 °C | 0 °C | 0 °C | 0 °C | – | COc1cc([C@@H]2c3cc4c(cc3[C@@H](O[C@@H]3O[C@@H]5CO[C@@H](C)O[C@H]5[C@H](O)[C@H]3O)[C@H]3COC(=O)[C@H]23)OCO4)cc(OC)c1O [ETOPOSIDE] | 1.3 µM | 11.9 µM
